Patent US20090062375A1, “METHODS AND COMPOSITIONS FOR THE TREATMENT OF VIRAL DISEASES” (priority 2005, published 2009)

Key:
[1] = test system: MMP-9 secretion by DV-infected iDC; assay: Gelatin zymography of gelatinase (MMP-9) secretion by DV-infected iDC; format: cell-based, human; details: 10 μM SB203580 pretreatment, DV exposure 16 hr, zymography (FIG. 5C)
Procedure: FIG. 5. Immature DC (A-C) or HUVEC (D-F) were infected or not with DV and cells were collected 30 min post infection. Cells lysate were separated on 12.5% SDS-PAGE under reducing conditions. Proteins were electrophoretically transferred onto nitrocellulose membrane. The membrane was probed with (A and E) antibodies to total and to specific phosphorylated forms of ERK1/ERK2 antibodies to total and (B, D) to specific phosphorylated forms of p38 kinase. Horseradish peroxidase-conjugated goat anti-rabbit IgG was used as secondary antibody. Immature DC (C) or HUVEC (F) were pretreated or not with 10 μM SB 203580 prior to exposure with DV for 16 hr at 37° C. Supernatants were collected, lyophilized and assayed by zymography. Data are representative of 3 independent experiments.
Immature dendritic cells 5×10^5 cells/well were exposed to DV2-16681 for 2 hr, at MOI of 1 pfu/cell, in serum free RPMI 1640. Five extensive washes were done to eliminate free virus. […] Supernatants of DV infected iDC were collected and assessed for their viral activity. […]
DV infected iDC (5×10^5 cells) were cultured and collected in several time periods. Gelatinase secretion of cell supernatants was determined by sodium dodecyl sulfate-polyacrylamide gel electrophoresis (SDS-PAGE) zymography by using a gelatin substrate, as previously described (Missé´et al., 2001). […]

[2] = test system: HUVEC monolayers; assay: HUVEC monolayer permeability assay (FITC-dextran, Transwell); format: cell-based, human; details: concentration not stated
Procedure: FIG. 6. Supernatant of DEN-V2 infected-iDC increase endothelial cell permeability in a MMP dependent fashion. Eighty percent confluent HUVEC were prepared on 24-well transwell polyethylene. (A) Either cell culture supernatants of uninfected iDC, DV-infected iDC, or recombinant TNF-α (20 ng/ml) were pre-treated or not with 20 nM SB-3CT for 24 hours before HUVEC exposure for 12 hours, HUVEC monolayer permeability was measured by using the FITC-Dextran detected with spectrofluorometer at an excitation wavelength of 485 nm and emission at 530 nm. […] Data are representative of 3 or 4 independent experiments.
FIG. 7. Supernatant of DEN-V2 infected-HUVEC increase endothelial cell permeability in a MMP-dependent fashion. IL-8 or TNF-α were used as controls. The induced permeability was inhibited as in experiment of FIG. 6 by SB-3CT.
Immature dendritic cells were cultured for 24 hr in serum-free RPMI 1640 conditioned medium. And then infected with DV, cells and supernatant were collected at different periods. […]
Permeability of HUVEC monolayers cultured on Transwell filters was assessed using FITC-labelled dextrans. […] The cells were removed and the absorbance of the FITC-dextran in the chamber was measured by spectrofluorometer (GENios-TECAN, Trappes, France) at an excitation wavelength of 485 nm and emission of 530 nm.

## C[S+]([O-])c1ccc(-c2nc(-c3ccc(F)cc3)c(-c3ccncc3)[nH]2)cc1 (centres unmarked) [SB203580, 4-(4-Fluorophenyl)-2-(4-methylsulfinylphenyl)-5-(4-pyridyl)1H-imidazole]
[1]
  increase in MMP-9 secretion by DV-infected iDC: totally abolished
[2]
  permeability of HUVEC increased by dengue virus-infected iDC supernatants (summary statement): inhibited
